Columns and labels:
[1] = test system: HAP1 MTAP-deleted cell line; assay: Viability assay, HAP1 MTAP-deleted cell line; assay type: cell-based; conditions: Homo sapiens; viability assay, HAP1 MTAP-deleted cell line; read-out: Hap1 MTAP deleted viability IC50
[2] = test system: SDMA in HAP1 MTAP-intact cell line (PRMT5 inhibition); assay: SDMA in-cell western assay, HAP1 MTAP-intact cell line; conditions: Homo sapiens, HAP1, read-out: Hap1 MTAP intact IC50
Source text: (§1) HAP1 MTAP-intact is a cell line in which endogenous levels of MTAP are expressed, and HAP1 MTAP-deleted is an MTAP-null cell line.

[3] = test system: SDMA in HAP1 MTAP-deleted (MTAP-null) cell line (PRMT5 inhibition); assay: SDMA in-cell western assay, HAP1 MTAP-deleted cell line; conditions: for IC50 / IC90: Homo sapiens; for IC50: HAP1, read-out: Hap1 MTAP deleted IC50; for IC90: HAP1, read-out: Hap1 MTAP deleted IC90; for Hap1 MTAP intact/deleted ratio: ratio of SDMA IC50 in HAP1 MTAP-intact to HAP1 MTAP-deleted cell line
Source text: as §1

Structure (SMILES)	IC50 [2]	IC50 [3]	IC90 [3]	IC50 [1]	Hap1 MTAP intact/deleted ratio [3]
CC1CCC(N(Cc2ccc(C(F)(F)F)cn2)C(=O)C(=O)Nc2cncc3cn[nH]c23)c2ccccc21 (stereo not drawn) [Compound 17, N′-(4-methyltetralin-1-yl)-N-(1H-pyrazolo[4,3-c]pyridin-7-yl)-N′-[[5-(trifluoromethyl)-2-pyridyl]methyl]oxamide]	> 0.05 µM	0.005 to 0.05 µM	> 0.125 µM	< 0.1 µM	C (IC50 ratio of less than 15 fold)
COC[C@@H](C1CC1)N(Cc1ccc(C(F)(F)F)cn1)C(=O)C(=O)Nc1cnc(OC)c(C(N)=O)c1 [Compound 37, (R)-N1-(5-carbamoyl-6-methoxypyridin-3-yl)-N^2-(1-cyclopropyl-2-methoxyethyl)-N^2-((5-(trifluoromethyl)pyridin-2-yl)methyl)oxalamide]	> 0.05 µM	0.005 to 0.05 µM	< 0.075 µM	< 0.1 µM	B (IC50 ratio greater than or equal to 15 fold but lower than 30 fold)
O=C(Nc1cncc2cn[nH]c12)C(=O)N(Cc1ccc(C(F)(F)F)cn1)[C@@H]1CCc2ccccc21 [Compound 26, (R)—N^1-(2,3-dihydro-1H-inden-1-yl)-N^2-(1H-pyrazolo[4,3-c]pyridin-7-yl)-N^1-((5-(trifluoromethyl)pyridin-2-yl)methyl)oxalamide]	> 0.05 µM	< 0.005 µM	0.075 to 0.125 µM	0.1 to 1 µM	B (IC50 ratio greater than or equal to 15 fold but lower than 30 fold)
Nc1ncc(NC(=O)C(=O)N(Cc2ccccn2)Cc2ccccn2)c2[nH]ncc12 [Compound 89, N-(4-amino-1H-pyrazolo[4,3-c]pyridin-7-yl)-N′,N′-bis(2-pyridylmethyl)oxamide]	> 0.05 µM	< 0.005 µM	< 0.075 µM	< 0.1 µM	A (IC50 ratio greater than or equal to 30 fold)
COc1ncc(NC(=O)C(=O)N(Cc2ccc(C(F)(F)F)cn2)C2CCC(C)c3ccccc32)cc1C(N)=O (stereo not drawn) [Compound 33, N-(5-carbamoyl-6-methoxy-3-pyridyl)-N′-(4-methyltetralin-1-yl)-N′-[[5-(trifluoromethyl)-2-pyridyl]methyl]oxamide]	> 0.05 µM	0.005 to 0.05 µM	> 0.125 µM	< 0.1 µM	C (IC50 ratio of less than 15 fold)
CCN(C(=O)C(=O)Nc1cnc(N)c2cn[nH]c12)[C@H](C)c1ccc(C(F)(F)F)cc1C [Compound 70, (R)—N^1-(4-amino-1H-pyrazolo[4,3-c]pyridin-7-yl)-N^2-ethyl-N^2-(1-(2-methyl-4-(trifluoromethyl)phenyl)ethyl)oxalamide]	0.005 to 0.05 µM	< 0.005 µM	< 0.075 µM	< 0.1 µM	C (IC50 ratio of less than 15 fold)
Nc1ncc(NC(=O)C(=O)N(Cc2ccc(C(F)(F)F)cn2)[C@@H]2CCC[C@H]2OC(F)F)cc1C1CC1 [Compound 4, N1-(6-amino-5-cyclopropylpyridin-3-yl)-N^2-((1R,2R)-2-(difluoromethoxy)cyclopentyl)-N^2-((5-(trifluoromethyl)pyridin-2-yl)methyl)oxalamide]	> 0.05 µM	0.005 to 0.05 µM	0.075 to 0.125 µM	0.1 to 1 µM	A (IC50 ratio greater than or equal to 30 fold)
Nc1ncc(NC(=O)C(=O)N(Cc2ccccn2)Cc2ccc(F)cc2Cl)c2[nH]ncc12 [Compound 77, N-(4-amino-1H-pyrazolo[4,3-c]pyridin-7-yl)-N′-[(2-chloro-4-fluoro-phenyl)methyl]-N′-(2-pyridylmethyl)oxamide]	0.005 to 0.05 µM	< 0.005 µM	< 0.075 µM	< 0.1 µM	B (IC50 ratio greater than or equal to 15 fold but lower than 30 fold)
Nc1ncc(NC(=O)C(=O)N(Cc2ccccc2)Cc2ncc(F)cc2Cl)c2[nH]ncc12 [Compound 65, N-(4-amino-1H-pyrazolo[4,3-c]pyridin-7-yl)-N′-benzyl-N′-[(3-chloro-5-fluoro-2-pyridyl)methyl]oxamide]	0.005 to 0.05 µM	< 0.005 µM	< 0.075 µM	< 0.1 µM	C (IC50 ratio of less than 15 fold)
CCN(Cc1ccc(C(F)(F)F)cn1)C(=O)C(=O)Nc1cnc(N)c2cn[nH]c12 [Compound 11, N-(4-amino-1H-pyrazolo[4,3-c]pyridin-7-yl)-N′-ethyl-N′-[[5-(trifluoromethyl)-2-pyridyl]methyl]oxamide]	> 0.05 µM	0.005 to 0.05 µM	< 0.075 µM	< 0.1 µM	A (IC50 ratio greater than or equal to 30 fold)
Nc1ncc(NC(=O)C(=O)N(CCC(F)(F)F)Cc2ccccc2)c2[nH]ncc12 [Compound 102, N-(4-amino-1H-pyrazolo[4,3-c]pyridin-7-yl)-N′-benzyl-N′-(3,3,3-trifluoropropyl)oxamide]	> 0.05 µM	0.005 to 0.05 µM	> 0.125 µM	0.1 to 1 µM	A (IC50 ratio greater than or equal to 30 fold)
CCc1cc(NC(=O)C(=O)N(Cc2ccc(C(F)(F)F)cn2)[C@@H]2CCC[C@H]2OC(F)F)cnc1N [Compound 35, N1-(6-amino-5-ethylpyridin-3-yl)-N^2-((1R,2R)-2-(difluoromethoxy)cyclopentyl)-N^2-((5-(trifluoromethyl)pyridin-2-yl)methyl)oxalamide]	> 0.05 µM	0.005 to 0.05 µM	> 0.125 µM	0.1 to 1 µM	A (IC50 ratio greater than or equal to 30 fold)
Nc1ncc(NC(=O)C(=O)N(Cc2ccccc2)Cc2ccncc2)c2[nH]ncc12 [Compound 27, N-(4-amino-1H-pyrazolo[4,3-c]pyridin-7-yl)-N′-benzyl-N′-(4-pyridylmethyl)oxamide]	> 0.05 µM	< 0.005 µM	< 0.075 µM	< 0.1 µM	A (IC50 ratio greater than or equal to 30 fold)
COC[C@@H](C1CC1)N(Cc1ccc(C(F)(F)F)cn1)C(=O)C(=O)Nc1cncc(C(N)=O)c1 [Compound 34, (R)-N1-(5-carbamoylpyridin-3-yl)-N2-(1-cyclopropyl-2-methoxyethyl)-N2-((5-(trifluoromethyl)pyridin-2-yl)methyl)oxalamide]	> 0.05 µM	0.005 to 0.05 µM	0.075 to 0.125 µM	0.1 to 1 µM	B (IC50 ratio greater than or equal to 15 fold but lower than 30 fold)

Further lines, with some results ahead:

IC50 [2]	IC50 [3]	IC90 [3]	Structure (SMILES)	IC50 [1]	Hap1 MTAP intact/deleted ratio [3]
0.005 to 0.05 µM	< 0.005 µM	< 0.075 µM	Cn1nccc1CN(Cc1ccccc1)C(=O)C(=O)Nc1cnc(N)c2cn[nH]c12 [Compound 125, N-(4-amino-1H-pyrazolo[4,3-c]pyridin-7-yl)-N′-benzyl-N′-[(2-methylpyrazol-3-yl)methyl]oxamide]	< 0.1 µM	B (IC50 ratio greater than or equal to 15 fold but lower than 30 fold)
0.005 to 0.05 µM	< 0.005 µM	< 0.075 µM	CCN(Cc1ccc(S(F)(F)(F)(F)F)cc1)C(=O)C(=O)Nc1cnc(N)c2cn[nH]c12 [Compound 150, N-(4-amino-1H-pyrazolo[4,3-c]pyridin-7-yl)-N′-ethyl-N′-[[4-(pentafluoro-sulfanyl)phenyl]methyl]oxamide]	< 0.1 µM	C (IC50 ratio of less than 15 fold)
> 0.05 µM	0.005 to 0.05 µM	0.075 to 0.125 µM	CCC(c1ccc(C(F)(F)F)cn1)N(C)C(=O)C(=O)Nc1cnc(N)c2cn[nH]c12 (stereo not drawn) [Compound 138, N-(4-amino-1H-pyrazolo[4,3-c]pyridin-7-yl)-N′-methyl-N′-[1-[5-(trifluoromethyl)-2-pyridyl]propyl]oxamide]	0.1 to 1 µM	A (IC50 ratio greater than or equal to 30 fold)
0.005 to 0.05 µM	< 0.005 µM	< 0.075 µM	Cc1cc(Cl)ccc1CN(Cc1ccccc1)C(=O)C(=O)Nc1cnc(N)c2cn[nH]c12 [Compound 186, N-(4-amino-1H-pyrazolo[4,3-c]pyridin-7-yl)-N′-benzyl-N′-[(4-chloro-2-methyl-phenyl)methyl]oxamide]	< 0.1 µM	B (IC50 ratio greater than or equal to 15 fold but lower than 30 fold)
> 0.05 µM	< 0.005 µM	0.075 to 0.125 µM	Cc1ccccc1CN(C(=O)C(=O)Nc1cnc(N)c2cn[nH]c12)[C@@H](C)C(C)C [Compound 117, (S)—N^1-(4-amino-1H-pyrazolo[4,3-c]pyridin-7-yl)-N^2-(2-methylbenzyl)-N^2-(3-methylbutan-2-yl)oxalamide]	0.1 to 1 µM	B (IC50 ratio greater than or equal to 15 fold but lower than 30 fold)
0.005 to 0.05 µM	< 0.005 µM	< 0.075 µM	Cc1cccc(CN(Cc2ccccc2)C(=O)C(=O)Nc2cnc(N)c3cn[nH]c23)c1C [Compound 130, N-(4-amino-2H-pyrazolo[4,3-c]pyridin-7-yl)-N′-benzyl-N′—[(2,3-dimethylphenyl)methyl]oxamide]	< 0.1 µM	B (IC50 ratio greater than or equal to 15 fold but lower than 30 fold)
> 0.05 µM	< 0.005 µM	0.075 to 0.125 µM	CC(C)CN(Cc1ccccn1)C(=O)C(=O)Nc1cnc(N)c2cn[nH]c12 [Compound 160, N-(4-amino-1H-pyrazolo[4,3-c]pyridin-7-yl)-N′-isobutyl-N′-(2-pyridylmethyl)oxamide]	0.1 to 1 µM	A (IC50 ratio greater than or equal to 30 fold)
